This is an account of results in US8394759B2, “Transdermal delivery of medicaments with combinations of cetylated fatty ester penetrant complexes” (Cymbiotics, Inc., priority 2008, dated 2013).

One series relates to arthritic patients. The experiment in a line: Topical cetylated fatty ester complexes with rubefacients versus placebo base, joint functionality and pain. Particulars: eucalyptus oil 1% to 5%, camphor 1-7% in the carrier formulation. Type of series: in vivo, human. The source says:
The composition of the invention provides for the administration of permeants with anti-arthritic properties. A topical application consisting of the cetylated fatty ester complexes in concentrations of 5% to 20% with rubefacients (such as methyl salicylate, menthol and for some variations capsaicin can be applied to affected areas of arthritic patients). The permeants were at concentrations ranging from 1-30%. The carrier formulation consisted of a penetrant group of 8 cetyl fatty esters (4-9%; cetyl decanoate, cetyl laurate, cetyl myristate, cetyl myristoleate, cetyl oleate, cetyl palmitate, cetyl palmitoleate and cetyl stearate) with propylene glycol as the polar solvent (12%), in the described cream base at a pH of 6.5. One variation of carrier formulation is also an anti-inflammatory and is used topically to treat joint pain and musculoskeletal pain and other types of pains in arthritis (Kraemer W J et al. 2004 J Rheumatology 31:767-74; Kraemer W J et al. 2005 J Strength and Conditioning Res 19: 475-80 and Sharan et al. 2009, submitted for publication), The preferred polar solvent is propylene glycol. […]

For a further series, the system named is patients. Particulars: oral formulations; cited from earlier work.
The conditions of series [1]: oral; cited from earlier work.
A further series has as its system mouse skin. The experiment in a line: Transdermal diazepam in CFEP-Complex formulation delivered to mouse skin. The series is classed as in vivo. Particulars: single application to mouse skin in 4-9% CFEP-Complex formulation; preliminary, 'may provide'. Here is the method: A formulation for transdermal delivery is a novel format for diazepam or lorazepam or clonazepam, and utilizes the lipophilic properties of each molecule. In one example diazepam is administered in 3 doses, namely 10 mg/gram, 25 mg/gram and 50 mg/gram using a 4-9% CFEP-Complex carrier formulation consisting of cetyl decanoate, cetyl laurate, cetyl myristate, cetyl myristoleate, cetyl oleate, cetyl palmitate, cetyl palmitoleate and cetyl stearate. The polar solvent used is propylene glycol (12%) in the described cream base at a pH of 6.5. A pH range of 6-7 is effective and tocopherol acetate is the antioxidant at 1%. […] The permeant is first finely emulsified in the CFEP-Complex and polar solvent prior to addition of the cream base. A single application of diazepam delivered to mouse skin in this formulation may provide pronounced activity for 5-8 hours. […] Pregabalin in a topical format is also an excellent anti-convulsant and useful in the treatment of seizure already described in examples 4 and 5 above.

Series [2] can be described thus: Permeation in the CFEP formulations. Particulars: in any of the three formulations of Example 3.
For series [3] the following is noted: intravenous injection, 5 mg; cited from earlier work.
For series [4] the following is noted: free base; cited from earlier work.
The conditions of series [5]: oral; cited from earlier work. This is another data set of the same source.

The Tmax is the time at which the peak concentration occurs.

Take `CC12CCC(CC1=O)C2(C)C` (centres unmarked) [camphor]: the “other rubefacients found to be effective” value with arthritic patients is given as “effective”.
Take `CC(C)C[C@H](CN)CC(=O)O` [Pregabalin]: the “adverse reactions such as drowsiness and dizziness, share of the patients” value with patients is “more than 10%”. Besides, the bioavailability entry in series [1] was “more than 90%”.
`CN1C(=O)CN=C(c2ccccc2)c2cc(Cl)ccc21` [diazepam]: the “duration of pronounced activity” value in the series with mouse skin fell in the range of 5 to 8 h.
As for `O=C(O)CCCCC1CCSS1` (stereo not drawn) [Alpha lipoic acid], in series [2], the permeation entry is listed as “permeates well”.
In the case of `CCN(CC)CC#CCOC(=O)C(O)(c1ccccc1)C1CCCCC1` (centres unmarked) [oxybutynin], the Tmax in series [3] is 15 min.
On to `CNC1(c2ccccc2Cl)CCCCC1=O` (centres unmarked) [Ketamine, 2-(2-chlorophenyl)-2-(methylamino)-cyclohexanone], for which the lipid solubility in series [4] is recorded as 10 times that of thiopentone.
`C/C1=C2/[N-][C@H]([C@H](CC(N)=O)[C@@]2(C)CCC(=O)NC[C@@H](C)OP(=O)([O-])O[C@H]2[C@@H](O)[C@@H](n3cnc4cc(C)c(C)cc43)O[C@@H]2CO)[C@]2(C)N=C(/C(C)=C3N=C(/C=C4N=C1[C@@H](CCC(N)=O)C\4(C)C)[C@@H](CCC(N)=O)[C@]\3(C)CC(N)=O)[C@@H](CCC(N)=O)[C@]2(C)CC(N)=O.[CH3-].[Co+3]` [methylcobalamin]: the “rate of absorption by passive diffusion” value in series [5] is on record as 1-2 % of the ingested material.
